Active and inactive are the calls of the source.
Experiments:
Melanocortin receptor 4 = Melanocortin receptor 4 (Homo sapiens, UniProt P32245); type: functional, cell-based;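 also: Cell-based assay with luminescence read-out, confirmatory dose-response testing for agonist activity of biased ligands at MC4R; human U2OS cells with tagged receptor and beta-arrestin; potency of agonists that increase receptor coupling to beta-arrestin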
H9c2 = assay: cells; type: functional, cell-based; conditions: Rattus norvegicus, H9c2, Myocardium
[1] = target: Adenosylmethionine-8-amino-7-oxononanoate aminotransferase (Mycobacterium tuberculosis, UniProt P9WQ81); assay: Mycobacterium tuberculosis BioA enzyme inhibitor Measured in Biochemical System Using Plate Reader - 2163-02_Inhibitor_Dose_CherryPick_Activity.; type: functional, Mycobacterium tuberculosis UT205
[2] = target: T1, Microphthalmia-associated transcription factor (Homo sapiens, UniProt O75030); assay: TRPM1 promoter luciferase signal decrease, dose response, MITF inhibitor project, cell-based, SK-MEL-5, cherry-picked, set 3 (AID 493073); type: functional
T1 sequence (O75030 whole entry): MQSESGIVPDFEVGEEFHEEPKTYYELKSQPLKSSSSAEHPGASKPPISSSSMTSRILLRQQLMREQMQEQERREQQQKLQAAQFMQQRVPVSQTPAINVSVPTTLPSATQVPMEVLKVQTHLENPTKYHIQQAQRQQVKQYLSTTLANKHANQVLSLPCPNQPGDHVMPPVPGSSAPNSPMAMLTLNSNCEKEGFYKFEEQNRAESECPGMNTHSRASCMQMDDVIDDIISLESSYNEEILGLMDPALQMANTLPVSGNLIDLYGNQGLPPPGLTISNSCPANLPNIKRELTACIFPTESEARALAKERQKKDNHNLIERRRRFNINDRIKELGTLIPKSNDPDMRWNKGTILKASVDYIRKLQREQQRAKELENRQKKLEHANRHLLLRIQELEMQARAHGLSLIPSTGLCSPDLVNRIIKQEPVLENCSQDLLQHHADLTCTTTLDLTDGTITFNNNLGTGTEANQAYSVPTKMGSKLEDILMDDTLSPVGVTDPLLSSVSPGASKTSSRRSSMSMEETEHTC

[3] = inhibitors of intracellular T. cruzi replication, confirmation, NIH3T3 host cells, beta-gal luminescence (AID 2044); type: functional, cell-based;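 also: intracellular parasites grown in NIH/3T3 mouse fibroblasts as host cells; luminescent beta-galactosidase reporter signal from transgenic T. cruzi replicating inside host cells; inhibitors lower the luminescence signal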
[4] = StAR promoter reporter inhibition counter-screen, dose response, counter-screen for LRH-1 inverse agonist project, cell-based, luminescence, luciferase reporter (AID 651969); type: functional
[5] = cytotoxicity toward NIH3T3 fibroblasts, dose response, counter-screen, cell-based, ATP luminescence, mouse fibroblasts (AID 2010); type: functional;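 also: cells exposed to compound for about 90 hours before reading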
[6] = target: Nuclear receptor subfamily 5 group A member 2 (Homo sapiens, UniProt O00482); type: functional, cell-based;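 also: HEK293T cells transfected with LRH-1 and a StAR promoter luciferase reporter; potency for inhibitors that lower LRH-1 driven reporter light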
Steroidogenic factor 1 = Steroidogenic factor 1 (Homo sapiens, UniProt Q13285); assay: Counterscreen for inverse agonists of the liver receptor homolog-1 (LRH-1; NR5A2): Luminescence-based cell-based high throughput dose response assay to identify inverse agonists of the Steroidogenic Factor 1 Nuclear Receptor (SF1; NR5A1).; type: functional
Nonstructural protein 1 = Nonstructural protein 1 (Influenza A virus, UniProt Q194T2); type: functional, Influenza A virus (A/California/07/2009(H1N1))
[7] = AlphaScreen signal interference compounds, dose response, artefact control for ARNT-TACC3 interaction inhibitor project, biochemical, luminescence, cherry-pick (AID 651705); type: functional;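 also: AlphaScreen bead proximity signal that flags compounds interfering with the detection technology; potency reflects signal decrease which marks the compound as an assay artifact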
[8] = HepG2 cell cytotoxicity, dose response, cytotoxicity control for non-replicating M. tuberculosis project (AID 489018); type: functional; conditions: Mycobacterium tuberculosis
[9] = Vero E6 cell cytotoxicity, dose response, cytotoxicity control for non-replicating M. tuberculosis project, secondary assay (AID 492998); type: functional, VeroE6; conditions: Vero C1008
cells = type: functional
[10] = THP-1 cell cytotoxicity, dose response, cytotoxicity control for non-replicating M. tuberculosis project (AID 489025); type: functional

Chain of Nonstructural protein 1 (Q194T2 whole entry): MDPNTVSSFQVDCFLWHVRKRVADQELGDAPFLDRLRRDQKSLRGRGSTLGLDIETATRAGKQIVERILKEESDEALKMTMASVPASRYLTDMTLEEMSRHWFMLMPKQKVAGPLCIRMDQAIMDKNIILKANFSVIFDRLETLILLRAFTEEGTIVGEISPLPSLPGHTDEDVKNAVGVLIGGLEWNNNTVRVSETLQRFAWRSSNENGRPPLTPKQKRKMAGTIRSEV
Chain of Steroidogenic factor 1 (Q13285 whole entry): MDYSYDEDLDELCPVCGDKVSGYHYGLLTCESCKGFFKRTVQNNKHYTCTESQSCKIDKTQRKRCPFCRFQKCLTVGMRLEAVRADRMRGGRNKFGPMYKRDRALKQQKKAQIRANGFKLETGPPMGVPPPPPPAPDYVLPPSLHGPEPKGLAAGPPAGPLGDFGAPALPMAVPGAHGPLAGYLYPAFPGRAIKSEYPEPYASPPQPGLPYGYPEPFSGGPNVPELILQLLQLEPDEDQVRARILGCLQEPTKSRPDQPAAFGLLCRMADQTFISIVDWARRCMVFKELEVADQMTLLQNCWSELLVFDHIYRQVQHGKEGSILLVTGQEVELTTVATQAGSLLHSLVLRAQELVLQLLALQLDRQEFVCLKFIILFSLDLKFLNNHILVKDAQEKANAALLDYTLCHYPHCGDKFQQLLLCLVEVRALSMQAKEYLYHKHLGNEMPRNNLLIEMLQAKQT
Chain of Nuclear receptor subfamily 5 group A member 2 (O00482 whole entry): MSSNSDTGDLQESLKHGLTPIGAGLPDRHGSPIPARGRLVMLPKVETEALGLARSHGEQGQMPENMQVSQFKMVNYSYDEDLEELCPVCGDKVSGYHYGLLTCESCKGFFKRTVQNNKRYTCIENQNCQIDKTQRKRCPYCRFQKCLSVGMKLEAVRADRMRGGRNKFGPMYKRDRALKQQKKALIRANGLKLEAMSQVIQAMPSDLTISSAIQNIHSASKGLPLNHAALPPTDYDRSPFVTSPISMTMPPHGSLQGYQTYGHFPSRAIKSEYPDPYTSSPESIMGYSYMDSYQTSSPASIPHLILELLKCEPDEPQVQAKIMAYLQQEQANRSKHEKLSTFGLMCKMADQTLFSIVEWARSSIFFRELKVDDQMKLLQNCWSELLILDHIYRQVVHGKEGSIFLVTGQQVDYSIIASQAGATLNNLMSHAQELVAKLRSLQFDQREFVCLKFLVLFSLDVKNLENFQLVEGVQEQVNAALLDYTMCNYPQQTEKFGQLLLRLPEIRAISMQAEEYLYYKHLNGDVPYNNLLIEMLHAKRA
Chain of Adenosylmethionine-8-amino-7-oxononanoate aminotransferase (P9WQ81 whole entry): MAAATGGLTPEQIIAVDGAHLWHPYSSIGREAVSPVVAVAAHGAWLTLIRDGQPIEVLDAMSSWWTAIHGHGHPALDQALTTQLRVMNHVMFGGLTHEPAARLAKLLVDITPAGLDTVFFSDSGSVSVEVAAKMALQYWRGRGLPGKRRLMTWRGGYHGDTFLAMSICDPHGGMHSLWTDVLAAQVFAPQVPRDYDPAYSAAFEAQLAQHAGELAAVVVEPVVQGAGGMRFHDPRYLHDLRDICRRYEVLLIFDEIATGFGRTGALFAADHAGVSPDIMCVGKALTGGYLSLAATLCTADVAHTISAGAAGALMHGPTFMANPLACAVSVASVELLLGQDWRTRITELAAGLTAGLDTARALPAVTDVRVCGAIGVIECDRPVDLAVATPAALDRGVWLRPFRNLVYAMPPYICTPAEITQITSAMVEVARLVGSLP
Chain of Melanocortin receptor 4 (P32245 whole entry): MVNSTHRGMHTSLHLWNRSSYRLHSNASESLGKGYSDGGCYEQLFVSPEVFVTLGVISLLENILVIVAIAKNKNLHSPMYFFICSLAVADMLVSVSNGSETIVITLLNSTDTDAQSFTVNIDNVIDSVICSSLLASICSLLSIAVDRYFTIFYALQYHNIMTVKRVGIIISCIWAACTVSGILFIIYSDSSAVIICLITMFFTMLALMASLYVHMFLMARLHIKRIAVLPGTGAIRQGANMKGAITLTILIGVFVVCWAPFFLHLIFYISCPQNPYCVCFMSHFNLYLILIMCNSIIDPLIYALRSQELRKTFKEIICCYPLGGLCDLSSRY

## COc1ccc(-c2cc(NC=O)c3ncc(-c4ccccc4)n3c2)cc1OC
Melanocortin receptor 4
  EC50: > 89.2 µM (inactive)
H9c2
  IC50: > 79 µM (inactive)

## Cc1ccc(-n2ncc3c2CC(C)(C)CC3NC(=O)CCc2cccnc2)cc1 (stereo unspecified)
[1]
  AC50: 9.11 µM (active)

## Cc1ccccc1OCC(=O)N/N=C/c1ccc([N+](=O)[O-])o1
[2]
  AC50: 8.22 µM (active)
[3]
  EC50: 0.151 µM (active)
[4]
  IC50: 29.9 µM (inactive)
[5]
  EC50: > 30 µM (not active)
[6]
  IC50: 10.6 µM (inactive)
Steroidogenic factor 1
  IC50: 6.24 µM (active)

## NC(=NOC(=O)Cc1ccc([N+](=O)[O-])cc1)c1ccccn1
Nonstructural protein 1
  IC50: 32.1 µM (active)
[7]
  AC50: 78.8 µM (active)

## COc1cc(C(=O)Nc2ccccc2C2COC(=O)C2=N)cc(OC)c1OC (stereo unspecified)
[4]
  IC50: 35.9 µM (inactive)
[6]
  IC50: 8.25 µM (active)
Steroidogenic factor 1
  IC50: 4.53 µM (active)

## O=C(CCS(=O)(=O)c1ccccc1)Nc1nc(-c2ccccn2)cs1
[8]
  CC50: > 20 µM (active)
Nonstructural protein 1
  IC50: 15.7 µM (active)
[9]
  CC50: 10.6 µM (active)
[7]
  AC50: 118 µM (active)
H9c2
  IC50: 35.8 µM (inactive)
cells
  IC50: 4.53 µM (active)
[10]
  CC50: 22.5 µM (active)

From ChEMBL document CHEMBL1201862, “PubChem BioAssay data set” (2004)
